In this experiment the target is T1, glutathione S-transferase (GST)-fused full-length human Syk protein (Homo sapiens, UniProt P43405).
T1 construct: (GST)-fused full-length human Syk protein; GST (glutathione S-transferase); purchased Carna Biosciences
As to the kind of experiment: Syk enzyme assay. Format: biochemical. Put shortly: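 IC50 values come from a time-resolved FRET readout (615 and 665 nm) of substrate phosphorylation, measured after an EDTA stop and 1 h antibody binding. The kinase reaction ran 40 min at room temperature with 27 μM ATP and 0.4 μM biotin-peptide, following a 15 min compound preincubation with baculovirus-made GST-full-length human Syk.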

The mark [1] stands for this setting: Syk enzyme assay, Test Example 1, read-out: IC50 of Syk-inhibitory activity.
The mark [2] stands for this setting: read-out: Syk-inhibitory activity (IC50).

pIC50: −log10 of the molar value. Read-outs that look alike come from different tables or passages of the source.

As usually defined, the pIC50 is the negative decadic logarithm of the IC50, by convention in mol/L. Take `COc1nccc2c(Nc3nc(N[C@@H]4CCCC[C@@H]4N)c(F)cc3C(N)=O)cccc12` (relative stereo) [Example 004-155, 6-(cis-2-aminocyclohexylamino)-5-fluoro-2-((1-methoxyisoquinolin-5-yl)amino)-nicotinamide]: the negative logarithm of the IC50 (pIC50) under setting [1] is above 8.00.
The same measure, in the same setting: as for `Cn1ccc(-c2cncc(Nc3nc(N[C@@H]4CCCC[C@@H]4N)c(F)cc3C(N)=O)c2)c1` (relative stereo) [Example 004-119, 6-(cis-2-aminocyclohexylamino)-5-fluoro-2-((5-(1-methyl-1H-pyrrol-3-yl)pyridin-3-yl)-amino)nicotinamide], the figure is above 8.00.
With `COCCOc1ncc(Nc2nc(N[C@@H]3CCCC[C@@H]3N)c(F)cc2C(N)=O)cc1-n1ccnn1` [Example 006-518, 6-(((1R,2S)-2-aminocyclohexyl)amino)-5-fluoro-2-((6-(2-methoxyethoxy)-5-(1H-1,2,3-triazol-1-yl)pyridin-3-yl)amino)nicotinamide], under setting [1], the negative-log IC50 (pIC50) was 7.00 to 7.30.
In the case of `NC(=O)c1cc(F)c(NC2CCCCC2N)nc1Nc1cncc(NC(=O)c2ccc(Cl)cc2)c1` (stereo not shown) [Example 027-009], under setting [1], the negative-log IC50 (pIC50) is 7.30 to 8.00.
Still for that read-out and setting: for `CC[C@H](N)C(C)Nc1nc(Nc2ccc3ncccc3c2)c(C(N)=O)cc1F` (stereo partly shown) [Example 006-149] the value was 7.30 to 8.00; for `COC(C)CCOc1nccc2c(Nc3nc(N[C@@H]4CCCC[C@@H]4N)c(F)cc3C(N)=O)cccc12` (relative stereo) [Example 004-157, 6-(cis-2-aminocyclohexylamino)-5-fluoro-2-((1-(3-methoxybutoxy)isoquinolin-5-yl)amino)-nicotinamide], 7.30 to 8.00.
The same measure, in the same setting: as for `CCOCCOCCOc1ccc2ccc(Nc3nc(NC4CCCCC4N)c(F)cc3C(N)=O)cc2n1` (stereo not shown) [Example 002-093], the figure is above 8.00.
Same read-out and setting: for `Cc1ncc(Nc2nc(NC3CCCCC3N)c(F)cc2C(N)=O)cc1-n1cncn1` (stereo not shown) [Example 002-138] the value was 7.00 to 7.30; for `NC(=O)c1cc(F)c(N[C@@H]2CCCC[C@@H]2N)nc1Nc1cnc(-n2cccn2)c(-n2ccnn2)c1` [Example 006-450, 2-((6-(1H-pyrazol-1-yl)-5-(1H-1,2,3-triazol-1-yl)pyridin-3-yl)amino)-6-(((1R,2S)-2-aminocyclohexyl)amino)-5-fluoronicotinamide], 6.00 to 7.00; for `COc1ccc(-c2cc(Nc3nc(N[C@@H](CN)CC(C)C)c(F)cc3C(N)=O)ccn2)cc1` [Example 006-326, (R)-6-((1-amino-4-methylpentan-2-yl)amino)-5-fluoro-2-((2-(4-methoxyphenyl)pyridin-4-yl)amino)nicotinamide], above 8.00.
For `COCCNc1ccc(Nc2nc(NC3CCCCC3N)c(F)cc2C(N)=O)cn1` (stereo not shown) [Example 002-076], under setting [1], the negative logarithm of the IC50 (pIC50) is 7.00 to 7.30.
In the case of `CCOc1ccccc1C(=O)Nc1cncc(Nc2nc(NC3CCCCC3N)c(F)cc2C(N)=O)c1` (stereo not shown) [Example 027-025], the negative logarithm of the IC50 (pIC50) under setting [1] is 7.30 to 8.00.
On the same count and under the same terms, for `NC(=O)c1cc(F)c(N[C@@H]2CCCC[C@@H]2N)nc1Nc1ccnc(-c2cc[nH]c2)c1` (relative stereo) [Example 006-131, 2-((2-(1H-pyrrol-3-yl)pyridin-4-yl)amino)-6-((cis-2-aminocyclohexyl)amino)-5-fluoronicotinamide] the value was above 8.00.
Still for that read-out and setting: for `Cc1ccc(-c2cncc(Nc3nc(NC4CCCCC4N)c(F)cc3C(N)=O)c2)o1` (stereo not shown) [Example 002-062] the value was above 8.00; for `NC(=O)c1cc(F)c(NC2CCCCC2N)nc1Nc1cncc(C2=CCCCC2)c1` (stereo not shown) [Example 002-095], above 8.00; for `NC(=O)c1cc(F)c(NC2CCCCC2N)nc1Nc1cncc(C2CCCC2)c1` (stereo not shown) [Example 002-094], 7.30 to 8.00.
With `CC(C)C[C@H](CN)Nc1nc(Nc2cccc3cccnc23)c(C(N)=O)cc1F` [Example 006-230, (R)-6-((1-amino-4-methylpentan-2-yl)amino)-5-fluoro-2-((quinolin-8-yl)amino)nicotinamide], the negative logarithm of the IC50 (pIC50) under setting [1] was 7.30 to 8.00.
For `NC(=O)c1cc(F)c(N[C@@H]2CCCC[C@@H]2N)nc1Nc1ccc2nc(OCCCN3CCCC3=O)ccc2c1` (relative stereo) [Example 004-200, 6-(cis-2-aminocyclohexylamino)-5-fluoro-2-((2-(3-(2-oxopyrrolidin-1-yl)propoxy)quinolin-6-yl)amino)nicotinamide], the pIC50 under setting [1] was above 8.00.
As to `COCCn1ccc2c(Nc3nc(N[C@@H]4CCCC[C@@H]4N)c(F)cc3C(N)=O)cc(F)cc21` (relative stereo) [Example 004-084, 6-(cis-2-aminocyclohexylamino)-5-fluoro-2-((6-fluoro-1-(2-methoxyethyl)-1H-indol-4-yl)amino)nicotinamide], the negative logarithm of the IC50 (pIC50) under setting [1] was above 8.00.
On the same count and under the same terms, as for `Cc1nn(C)c2ccc(Nc3nc(N[C@H](C4CC4)[C@H](C)N)c(F)cc3C(N)=O)cc12` [Example 006-582, 6-(((1R,2S)-2-amino-1-cyclopropylpropyl)amino)-2-((1,3-dimethyl-1H-indazol-5-yl)amino)-5-fluoronicotinamide], the figure is above 8.00; as for `NCC1(Nc2nc(Nc3ccc4ncccc4c3)c(C(N)=O)cc2F)CC1` [Example 006-171, 6-((1-(aminomethyl)cyclopropyl)amino)-5-fluoro-2-((quinolin-6-yl)amino)nicotinamide], above 8.00; as for `C[C@H](N)[C@@H](CC1CC1)Nc1nc(Nc2ccc3cnn(CCF)c3c2)c(C(N)=O)cc1F` [Example 006-437, 6-(((2R,3S)-3-amino-1-cyclopropylbutan-2-yl)amino)-5-fluoro-2-((1-(2-fluoroethyl)-1H-indazol-6-yl)amino)nicotinamide], 7.30 to 8.00.
As to `NC(=O)c1cc(F)c(NCc2ncc[nH]2)nc1Nc1ccc2ncccc2c1` [Example 12-28, 5-fluoro-6-(((1H-imidazol-2-yl)methyl)amino)-2-(quinolin-6-ylamino)nicotinamide], the pIC50 under setting [2] was at least 6.00.
On to `CC(C)C[C@H](CN)Nc1nc(Nc2ccc(N3CCOCC3)nc2)c(C(N)=O)cc1F` [Example 006-191, (R)-6-((1-amino-4-methylpentan-2-yl)amino)-5-fluoro-2-((6-morpholinopyridin-3-yl)amino)nicotinamide], for which the negative-log IC50 (pIC50) under setting [1] was 7.30 to 8.00.
Still for that read-out and setting: as for `C[C@H](N)[C@@H](CC1CC1)Nc1nc(Nc2ccc3c(F)nn(C4CC4)c3c2)c(C(N)=O)cc1F` [Example 006-481, 6-(((2R,3S)-3-amino-1-cyclopropylbutan-2-yl)amino)-2-((1-cyclopropyl-3-fluoro-1H-indazol-6-yl)amino)-5-fluoronicotinamide], the figure is 6.00 to 7.00; as for `NC(=O)c1cc(Nc2nc(N[C@@H]3CCCC[C@@H]3N)c(F)cc2C(N)=O)ccn1` [Example 029-012], above 8.00.
Same read-out and setting: as for `NC(=O)c1cc(F)c(NC2CCCCC2N)nc1Nc1cccc2c1cnn2Cc1ccccc1` (stereo not shown) [Example 002-029], the figure is 7.30 to 8.00; as for `NC(=O)c1cc(F)c(N[C@@H]2CCCC[C@@H]2N)nc1Nc1cccc2c1CNC2=O` [Example 004-009], above 8.00; as for `CCCOc1ccc2cc(Nc3nc(N[C@@H]4CCCC[C@@H]4N)c(F)cc3C(N)=O)cnc2c1` (relative stereo) [Example 004-174, 6-(cis-2-aminocyclohexylamino)-5-fluoro-2-((7-propoxyquinolin-3-yl)amino)nicotinamide], above 8.00.
In the case of `NC(=O)c1cc(F)c(N[C@@H]2CCCC[C@@H]2N)nc1Nc1cnc2c(NS(=O)(=O)c3ccc(Cl)cc3)cccc2c1` (relative stereo) [Example 41-6, 6-(cis-2-aminocyclohexylamino)-2-((8-(4-chlorophenylsulphonamide)quinolin-3-yl)amino)-5-fluoronicotinamide], the negative-log IC50 (pIC50) under setting [1] was 7.00 to 7.30.
On the same count and under the same terms, as for `NC(=O)c1cc(F)c(NC2CCCCC2N)nc1Nc1ccc(NCCO)nc1` (stereo not shown) [Example 002-075], the figure is 7.30 to 8.00.
On the same count and under the same terms, as for `NC(=O)c1cc(F)c(NC2CCCCC2N)nc1Nc1cncc(NC(=O)c2ccc3c(c2)OCCO3)c1` (stereo not shown) [Example 027-035], the figure is 7.30 to 8.00.
With `NC(=O)c1cc(F)c(N[C@@H]2CCCC[C@@H]2N)nc1Nc1ccc2nc(-n3cccn3)cnc2c1` (relative stereo) [Example 004-208, 2-((2-(1H-pyrazol-1-yl)quinoxalin-6-yl)amino)-6-(cis-2-aminocyclohexylamino)-5-fluoronicotinamide], under setting [1], the pIC50 is above 8.00.
The same measure, in the same setting: for `NC(=O)c1cc(F)c(NC2CCCCC2N)nc1Nc1ccc2cnn(Cc3ccccc3)c2c1` (stereo not shown) [Example 002-047] the value was 7.30 to 8.00.
The same measure, in the same setting: for `NCCNCCNc1nc(Nc2ccc3ncccc3c2)c(C(N)=O)cc1F` [Example 002-128] the value was 6.00 to 7.00; for `CCNc1nc(Nc2ccc3ncsc3c2)c(C(N)=O)cc1F` [Example 006-042, 2-((benzo[d]thiazol-6-yl)amino)-6-(ethylamino)-5-fluoronicotinamide], 6.00 to 7.00.
With `Cc1nc2ccc(Nc3nc(NCCN)c(F)cc3C(N)=O)cc2o1` [Example 6-23, 6-((2-aminoethyl)amino)-5-fluoro-2-((2-methylbenzo[d]oxazol-6-yl)amino)nicotinamide], under setting [2], the pIC50 is at least 6.00.
With `COc1cccc(-c2cc(Nc3nc(N[C@@H](CN)CC(C)C)c(F)cc3C(N)=O)ccn2)c1F` [Example 006-327, (R)-6-((1-amino-4-methylpentan-2-yl)amino)-5-fluoro-2-((2-(2-fluoro-3-methoxyphenyl)pyridin-4-yl)amino)nicotinamide], the negative-log IC50 (pIC50) under setting [1] was above 8.00.
With `CCc1ncc(Nc2nc(N[C@@H]3CCCC[C@@H]3N)c(F)cc2C(N)=O)cc1Cl` [Example 006-568, 6-(((1R,2S)-2-aminocyclohexyl)amino)-2-((5-chloro-6-ethylpyridin-3-yl)amino)-5-fluoronicotinamide], the negative-log IC50 (pIC50) under setting [1] was 7.00 to 7.30.
Same read-out and setting: for `COCC(C)Oc1ccc2ccc(Nc3nc(NC4CCCCC4N)c(F)cc3C(N)=O)cc2n1` (stereo not shown) [Example 002-091] the value was above 8.00.

The values are drawn from patent US8895585B2, “Nicotinamide derivative or salt thereof” (FUJIFILM Corporation, priority 2010, dated 2014).
